Source: PubChem BioAssay AID651688 (The Scripps Research Institute Molecular Screening Center, 2012)
Activity calls are given as the source filed them. How the calls were made is not given here.

These compounds were tested against 5-hydroxytryptamine receptor 5A (Homo sapiens) (UniProt P47898) (assay: activation of human HTR5A receptor, late-stage follow-up, counter-screen for OPRM1-OPRD1 heterodimer activator project, cell-based, luminescence, dose response (AID 651688)). Conditions: HTR5A counterscreen cells, luminescence (beta-arrestin/complementation).
5-hydroxytryptamine receptor 5A (Homo sapiens), sequence (P47898 whole entry, looked up): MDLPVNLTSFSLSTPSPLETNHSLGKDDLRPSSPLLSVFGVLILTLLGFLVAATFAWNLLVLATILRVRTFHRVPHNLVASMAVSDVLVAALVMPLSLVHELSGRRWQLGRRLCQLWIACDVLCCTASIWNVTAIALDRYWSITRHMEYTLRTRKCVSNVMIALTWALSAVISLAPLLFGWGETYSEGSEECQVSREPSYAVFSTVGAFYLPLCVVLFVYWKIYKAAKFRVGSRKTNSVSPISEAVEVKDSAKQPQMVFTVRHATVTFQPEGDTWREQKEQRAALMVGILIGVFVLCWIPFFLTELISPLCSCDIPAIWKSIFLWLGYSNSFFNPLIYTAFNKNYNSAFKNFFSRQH
With `CCOC(=O)C1(CCc2ccccc2)CCN(Cc2ccc(NC(C)=O)cc2)CC1` the EC50 was > 40 µM (inactive). In the case of `CCOC(=O)C1(Cc2ccccc2)CCN(Cc2cccn2-c2cccnc2)CC1`, the EC50 is reported as > 40 µM (inactive). For `CCOC(=O)C1(CCc2ccccc2)CCN(Cc2cc(C)cc(C)c2)CC1`, the EC50 was > 40 µM (inactive). With `OCC1(CCc2ccccc2)CCN(Cc2cc(F)ccc2-n2cccn2)CC1` the EC50 was > 40 µM (inactive). For `CCOC(=O)C1(CCc2ccccc2)CCN(Cc2ccc(OC(C)C)c(C#N)c2)CC1`, the EC50 was > 40 µM (inactive). For `CCOC(=O)C1(Cc2ccccc2)CCN(Cc2cccn2-c2nccs2)CC1`, the EC50 was > 40 µM (inactive). `CCOC(=O)C1(CC2CCCCO2)CCN(Cc2c(C)cc(C)cc2-n2cccn2)CC1` (stereo unspecified) was tested, and the EC50 was > 40 µM (inactive). With `CCOC(=O)C1(CCOc2ccccc2)CCN(Cc2ccc(O)c(OC)c2)CC1` the EC50 was > 40 µM (inactive). `CCOC(=O)C1(CCOc2ccccc2)CCN(Cc2cccn2-c2cccnc2)CC1` was tested, and the EC50 was > 40 µM (inactive). With `CCOC(=O)C1(CCc2ccccc2)CCN(Cc2ccccc2C)CC1` the EC50 was > 40 µM (inactive). `CCOC(=O)C1(CCCc2ccccc2)CCN(Cc2cnn(C)c2)CC1` was tested, and the EC50 was > 40 µM (inactive).
